{
  "source": "patent US7842683B2",
  "about": "“Neurotherapeutic compositions and method” (Revaax Pharmaceuticals, LLC, priority 1999, dated 2010)",
  "key": {"hamsters [1]": {"system": "hamsters", "experiment": "Motor activity in an open field (hamsters)", "format": "in vivo, Syrian golden hamsters (Mesocricetus auratus)", "conditions": "50 μg/kg, 90 min after injection", "experimental": "Six animals were tested for general motor activity in an “open field” following treatment with saline vehicle or 50 μg/kg Mox (FIG. 5). The study was counter balanced with each animal receiving each treatment. Ninety minutes after injection a single animal was placed into a large clean Plexiglas cage (48×32×40 cm) devoid of any bedding. This open field was delineated into equal quadrants by tape on the underside of the cage. Animals were scored for motor activity by counting the number of quadrants traversed in 1 min."}, "hamsters [2]": {"system": "hamsters", "experiment": "Olfactory discrimination: latency to find hidden sunflower seeds", "format": "in vivo, Syrian golden hamsters (Mesocricetus auratus)", "conditions": "50 μg/kg", "experimental": "Sixteen animals were treated with vehicle or 50 μg/kg Mox and tested for olfactory discrimination by measuring their latency to find hidden sunflower seeds (FIG. 5). The injections were counterbalanced with each animal receiving each treatment. Prior to testing animals were fasted for 24 hrs. Ninety minutes after injection animals were briefly taken from their home cage while six sunflower seeds were buried under the bedding in one corner. Animals were placed back into their home cage and scored for the latency to find the seeds in a ten min observation period. […] In fact, not one of the sixteen animals consumed all of the seeds following saline as compared to all animals treated with Mox.\nSix animals received an intracerebroventricular injection of vehicle or 1 mg/kg PPP and tested for olfactory discrimination by measuring their latency to find hidden sunflower seeds (FIG. 16). The injections were counterbalanced with each animal receiving each treatment. Prior to testing animals were fasted for 24 hrs. Sixty min. After injection animals were briefly taken from their home cage while six sunflower seeds were buried under the bedding in one corner. Animals were placed back into their home cage and scored for the latency to find the seeds in a five min. Observation period."}, "male hamsters [3]": {"system": "male hamsters", "experiment": "Sexual activity toward a receptive female", "format": "in vivo, golden hamsters", "conditions": "50 μg/kg, 90 min", "experimental": "Six animals were tested over a five min observation period for sexual activity following treatment with saline vehicle or 50 μg/kg Mox (FIG. 6). The study was counter balanced with each animal receiving each treatment. Ninety min after injection, animals were scored for latency to mount and number of intromissions, i.e., bouts of copulation, toward a receptive female placed into their home cage. Female golden hamsters were ovariectomized under general anesthesia. Following recovery animals were treated with a single SC injection of […] estradiol benzoate for three consecutive days to induce sexual receptivity. On the day of testing the estrogen primed females were introduced into the home cage of the experimental males. […] Lordosis, is a stereotyped posture characterized by intense, sustained vertebral dorsiflexion."}, "[4]": {"system": "adolescent male rhesus macaques", "experiment": "Social behavior in non-human primates", "format": "in vivo", "conditions": "1 mg/kg IM", "experimental": "Eight, two year old adolescent male rhesus macaques were tested with Mox. Animals were raised with their mothers in a group setting at a field station. At one year of age, they were transferred to individual cages. Each day thereafter, they were paired housed for two-three hrs. The adolescent partners were always the same. […] The display of social behaviors in this arrangement are very robust because of the limited amount of time the monkeys spend together. During the experiment the monkeys were paired in the “play-cage” where they were video taped for one hour. The study was designed so that behavioral data were obtained for each monkey under Mox and vehicle treatment. The treatment was an ABA type schedule of administration: Day 1—one member of each pair received 0.9% NaCl vehicle, Day 2—drug, Day 3—vehicle. Only one member of a pair was injected on a test day. The other member of a pair was injected a week later according to the same ABA schedule. […] Animals were video taped sixty minutes after injection for a one hr observation period. Animals were scored for over forty different behaviors (Winslow et al., 1988). Only twenty-eight are listed on TABLE I. The unreported behaviors, e.g., self-bites, vocalizations, clinging, mounts, escapes, self grooming were so infrequent that they were omitted from the analysis. Paired t-test was run for each behavioral measure."}, "[5]": {"system": "Amino Acid, Adrenergic, Serotonergic, and Dopaminergic Receptors and Their Transporters", "experiment": "NOVASCREEN screen of thirty-six receptor and transporter binding assays", "conditions": "100 nM, duplicate samples", "excerpt": "Moxalactam was screened in thirty-six different binding assays by NOVASCREEN, a contract research organization based in Hanover, Md. […] These assays were chosen because their respective receptor or transporter may play a role in the pathophysiology of mental illness. […] [table] [table] [table] [table] [table]"}, "[6]": {"system": "Corticotropin Releasing Factor receptor", "experiment": "NOVASCREEN CRF binding assay", "conditions": "100 nM", "experimental": "[table] Corticotropin releasing hormone (CRH or CRF as shown on the following page) is a critical neurohormone in the regulation of stress. Since Mox suppresses impulsivity, aggression, and anxiety while enhancing learning and memory it may be acting to reduce stress. For this reason, Mox was tested by NOVASCREEN in a CRF binding assay."}, "[7]": {"conditions": "cited from earlier work"}, "gram-negative meningitis": {"system": "gram-negative meningitis", "conditions": "241 of 260; 4 g every 8 hrs for 2-3 weeks; cited from earlier work"}, "male hamsters [8]": {"system": "male hamsters", "experiment": "Novelty test, stress-induced release of cortisol", "format": "in vivo", "conditions": "10 μg/kg IP", "experimental": "The simple procedure of placing an adult male hamster into a novel environment for 5 min causes a significant, predictable increase in blood levels of cortisol (Weinberg and Wong 1986). This novelty test was used to assess the effects of CLAV on stress-induced release of cortisol. Two groups of male hamsters were treated IP with either CLAV (10 μg/kg, n=6), or saline vehicle (n=4). A third group (n=4) received no treatment or isolation stress and served as a control for basal levels of cortisol. Sixty min after treatment animals were taken from their home cage and placed into a novel cage for 5 min. Afterwards animals were sacrificed by decapitation and trunk blood collected for radioimmunoassay of cortisol. All animals were tested under reverse light:dark conditions four hrs into the dark cycle. Data were compared with a one-way ANOVA followed by Fisher PLSD post hoc tests."}, "Male Wistar rats": {"system": "Male Wistar rats", "experiment": "Elevated plus-maze (anxiolytic activity)", "format": "in vivo, rat"}, "[9]": {"system": "gram negative beta-lactamase enzymes", "conditions": "cited from earlier work"}, "[10]": {"conditions": "approximately 7-10 mg/kg/day, intravenous as TIMENTIN; cited from earlier work"}},
  "note": "“And” between values parts separate entries of the source, which are not always exact repeats. Equal values may be shown once.",
  "data": [
    {"smiles": "CO[C@@]1(NC(=O)C(C(=O)O)c2ccc(O)cc2)C(=O)N2C(C(=O)O)=C(CSc3nnnn3C)CO[C@@H]21", "note": "(stereo partly drawn) [Mox, 7-β-[2-carboxy-2-(4-hydroxyphenyl)acetamido]-7α-methoxy-3-[[(1-methyl-1H-tetrazol-5-yl)thio]methyl]-1-oxa-1-dethia-3-cephem-4-carboxylic acid]", "values": [
      {"measurement": "open field activity (quadrants traversed in 1 min)", "setting": "hamsters [1]", "result": "no significant difference"},
      {"measurement": "time to consume all seeds", "setting": "hamsters [2]", "result": "less than five"},
      {"measurement": "latency to find the seed", "setting": "hamsters [2]; 90 min, fasted 24 hrs", "result": "significantly (p<0.001) reduced"},
      {"measurement": "intromission rate", "setting": "male hamsters [3]", "result": "trend toward a decreased intromission rate"},
      {"measurement": "time to mount", "setting": "male hamsters [3]; five min observation", "result": "significantly increased"},
      {"measurement": "allogrooming", "setting": "[4]", "result": "no effect"},
      {"measurement": "duration of play fighting", "setting": "[4]; sixty minutes after injection, one hr observation", "result": "significantly reduced"},
      {"measurement": "effect in the thirty-six binding assays", "setting": "[5]", "result": "no significant effect"},
      {"measurement": "effect in the CRF binding assay", "setting": "[6]", "result": "no effect"},
      {"measurement": "accumulation with multiple injections", "setting": "[7]; 8-12 hr intervals", "result": "no accumulation"},
      {"measurement": "elimination half-life", "setting": "[7]; IM injection", "result": 2.3, "unit": "h"},
      {"measurement": "time of peak plasma concentrations", "setting": "[7]; after IM injection", "result": "one"},
      {"measurement": "CSF concentration as a percentage of serum concentration", "setting": "[7]; human, in vivo", "result": "20% and 15-20%"},
      {"measurement": "patients with satisfactory response to antibiotic therapy", "setting": "gram-negative meningitis", "result": 93, "unit": "%"}
    ]},
    {"smiles": "O=C(O)[C@H]1/C(=C/CO)O[C@@H]2CC(=O)N21", "note": "[CLAV, Clavulanic acid]", "values": [
      {"measurement": "effect on the release of cortisol in response to mild stress", "setting": "male hamsters [8]", "result": "no ostensible effect"},
      {"measurement": "blood level of cortisol vs untreated, non-stressed control", "setting": "male hamsters [8]; sixty min, 5 min novel cage", "result": "more than twice"},
      {"measurement": "effective dose, times less than CDP", "setting": "Male Wistar rats; CLAV 100 ng/kg vs CDP 10 mg/kg", "result": "100,000 times"},
      {"measurement": "open arm entries", "setting": "Male Wistar rats; daily IP for seven days: CLAV 100 ng/kg, CDP 10 mg/kg", "result": "no significant difference"},
      {"measurement": "binding affinity for the beta-lactamases", "setting": "[9]", "result": "very high"},
      {"measurement": "concentration range inhibiting gram negative beta-lactamase enzymes", "setting": "[9]", "result": "15 to 34", "unit": "nM"},
      {"measurement": "adverse reactions or contraindications", "setting": "[10]", "result": "no reported adverse reactions or contraindications"}
    ]}
  ]
}
